# Measured values: patent US10202354B2, “Therapeutic compounds and uses thereof” (GENENTECH, INC., priority 2015, dated 2019)
# Target: Full length KDM2B (Homo sapiens (Human), UniProt Q8NHM5)
# Assay: KDM2B TR-FRET Assay for Determining Inhibitor IC50
# Format: biochemical
# Settings: TR-FRET (HTRF), biotin-H3K36me2 peptide substrate
# Source text: KDM2B TR-FRET Assay for Determining Inhibitor IC50
# The KDM2B TR-FRET Assay described above represents an additional embodiment of the invention.
# Chain of Full length KDM2B (Q8NHM5 whole entry): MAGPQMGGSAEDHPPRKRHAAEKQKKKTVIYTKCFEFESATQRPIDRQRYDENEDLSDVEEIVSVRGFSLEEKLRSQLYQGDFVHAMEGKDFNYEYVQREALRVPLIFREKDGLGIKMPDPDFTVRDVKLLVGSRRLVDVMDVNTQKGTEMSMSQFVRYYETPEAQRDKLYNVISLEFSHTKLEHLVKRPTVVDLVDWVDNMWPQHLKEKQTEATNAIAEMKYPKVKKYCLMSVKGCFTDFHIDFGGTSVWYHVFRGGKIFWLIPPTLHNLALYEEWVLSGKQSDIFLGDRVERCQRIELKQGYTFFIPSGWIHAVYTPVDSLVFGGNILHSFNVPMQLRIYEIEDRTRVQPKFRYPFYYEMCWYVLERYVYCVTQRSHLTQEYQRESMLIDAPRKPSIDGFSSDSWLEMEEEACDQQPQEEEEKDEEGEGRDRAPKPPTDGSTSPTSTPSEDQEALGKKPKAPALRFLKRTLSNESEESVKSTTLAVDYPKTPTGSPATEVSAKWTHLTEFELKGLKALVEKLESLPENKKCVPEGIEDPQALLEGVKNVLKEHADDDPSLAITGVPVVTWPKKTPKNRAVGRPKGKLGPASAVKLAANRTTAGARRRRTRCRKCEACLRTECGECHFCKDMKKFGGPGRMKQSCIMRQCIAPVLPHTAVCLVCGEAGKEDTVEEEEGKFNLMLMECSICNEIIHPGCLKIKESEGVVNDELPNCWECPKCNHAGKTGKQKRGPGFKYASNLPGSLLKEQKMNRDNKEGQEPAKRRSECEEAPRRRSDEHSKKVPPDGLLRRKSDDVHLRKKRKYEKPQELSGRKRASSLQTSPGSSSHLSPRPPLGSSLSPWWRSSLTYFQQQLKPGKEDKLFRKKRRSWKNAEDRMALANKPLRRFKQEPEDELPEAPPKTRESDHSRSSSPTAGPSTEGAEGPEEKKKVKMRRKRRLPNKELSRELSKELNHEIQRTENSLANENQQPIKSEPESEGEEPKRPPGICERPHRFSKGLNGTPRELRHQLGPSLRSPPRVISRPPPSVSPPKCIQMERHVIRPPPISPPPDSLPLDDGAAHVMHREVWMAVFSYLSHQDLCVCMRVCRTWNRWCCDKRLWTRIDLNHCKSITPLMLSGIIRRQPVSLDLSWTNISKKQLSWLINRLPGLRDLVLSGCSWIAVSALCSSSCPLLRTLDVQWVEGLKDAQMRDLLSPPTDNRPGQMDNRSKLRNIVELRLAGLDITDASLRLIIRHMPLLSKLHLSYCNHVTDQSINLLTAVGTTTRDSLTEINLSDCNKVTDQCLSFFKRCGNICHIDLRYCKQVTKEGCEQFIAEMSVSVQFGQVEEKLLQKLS
row,SMILES,IC50 [nM]
1,"CCN1CCN(C2=NCCN2S(=O)(=O)c2ccc(F)cc2F)CC1 [Example 109, 1-[1-(2,4-difluorophenyl)sulfonyl-4,5-dihydroimidazol-2-yl]-4-ethyl-piperazine]",6.33
2,"CCN1CCN(C2=NCCN2S(=O)(=O)c2ccc3ccccc3c2)CC1 [Example 110, 1-ethyl-4-[1-(2-naphthylsulfonyl)-4,5-dihydroimidazol-2-yl]piperazine]",0.998
3,"CCN1CCN(C2=NCCN2S(=O)(=O)c2ccccc2OC)CC1 [Example 111, 1-ethyl-4-[1-(2-methoxyphenyl)sulfonyl-4,5-dihydroimidazol-2-yl]piperazine]",13.3
4,"CCN1CCN(C2=NCCN2S(=O)(=O)c2ccccc2C#N)CC1 [Example 112, 2-[[2-(4-ethylpiperazin-1-yl)-4,5-dihydroimidazol-1-yl]sulfonyl]benzonitrile]",9.81
5,"CCN1CCN(C2=NCCN2S(=O)(=O)c2cccc(Cl)c2)CC1 [Example 113, 1-[1-(3-chlorophenyl)sulfonyl-4,5-dihydroimidazol-2-yl]-4-ethyl-piperazine]",9.06

# Other lines, results leading:
row,IC50 [nM],SMILES
1,2.81,"CCN1CCN(C2=NCCN2S(=O)(=O)c2ccccc2Cl)CC1 [Example 114, 1-[1-(2-chlorophenyl)sulfonyl-4,5-dihydroimidazol-2-yl]-4-ethyl-piperazine]"
2,3.57,"CCN1CCN(C2=NCCN2S(=O)(=O)c2cccc(OC)c2)CC1 [Example 115, 1-ethyl-4-[1-(3-methoxyphenyl)sulfonyl-4,5-dihydroimidazol-2-yl]piperazine]"
3,5.45,"CCN1CCN(C2=NCCN2S(=O)(=O)c2ccc(OC)cc2)CC1 [Example 116, 1-ethyl-4-[1-(4-methoxyphenyl)sulfonyl-4,5-dihydroimidazol-2-yl]piperazine]"
4,3.76,"CCN1CCN(C2=NCCN2S(=O)(=O)c2ccc(C)cc2)CC1 [Example 117, 1-ethyl-4-[1-(p-tolylsulfonyl)-4,5-dihydroimidazol-2-yl]piperazine]"
5,1.02,"CCN1CCN(C2=NCCN2S(=O)(=O)c2c(Cl)cccc2Cl)CC1 [Example 118, 1-[1-(2,6-dichlorophenyl)sulfonyl-4,5-dihydroimidazol-2-yl]-4-ethyl-piperazine]"
6,11.4,"CCN1CCN(C2=NCCN2S(=O)(=O)c2cnn(CC)c2C)CC1 [Example 119, 1-ethyl-4-[1-(1-ethyl-5-methyl-pyrazol-4-yl)sulfonyl-4,5-dihydroimidazol-2-yl]piperazine]"
7,13.3,"CCN1CCN(C2=NCCN2S(=O)(=O)c2cccc3nonc23)CC1 [Example 120, 4-[[2-(4-ethylpiperazin-1-yl)-4,5-dihydroimidazol-1-yl]sulfonyl]-2,1,3-benzoxadiazole]"
